One data set in a line: in vitro. The conditions noted are these: human, microsomes, pH 7.4.
Data set [1] has as its system Mycobacterium tuberculosis (H37 Rv, standard tuberculosis strain). Kind of data set: Anti-Mycobacterium tuberculosis activity, microwell Alamar Blue fluorometric method (MIC). It is filed as cell-based. To be noted: Mycobacterium tuberculosis H37Rv, 37° C., 8 days + 2 days, read-out: MIC (minimal inhibitory concentration). Background: Alamar Blue is a resazurin reagent that responds to reducing activity.

A short description of the next data set: physchem. To be noted: pH 7.4, aqueous buffer, kinetic from dmso stock.
Another data set has as its system Tuberculosis. To be noted: background statement, existing clinical first-line drug; cited from earlier work.

For twelve compounds, half-life, MIC and solubility results are on record in patent publication US12679835B2, “Benzothiazinone derivative substituted with trifluoromethyl at 6-position, and preparation method therefor and use thereof” (SOOCHOW UNIVERSITY, priority 2021, dated 2026).

Structures are written as SMILES. Values after ≈ are worked out from the molar mass of the structure shown.

For orientation: half-life means the time in which the quantity being followed falls by half. High values mean slow decline, low ones rapid decline. For `CN(Cc1nnc(-c2ccccc2)o1)c1nc(=O)c2cc(S(C)(=O)=O)cc([N+](=O)[O-])c2s1` [Control 1], the half-life at 1 μM in “in vitro” was 45.9 min. In addition, the MIC in data set [1] was 0.014 µg/mL.
Compound `CN(Cc1cn(-c2ccccc2)nn1)c1nc(=O)c2cc(S(C)(=O)=O)cc([N+](=O)[O-])c2s1` [Control 2] yielded a half-life at 1 μM in “in vitro” of 53.7 min. Besides, in data set [1], the MIC is 0.022 µg/mL.
Taken in the same sequence, the figures for `CN(Cc1cn(-c2ccc(F)cc2)nn1)c1nc(=O)c2cc(S(C)(=O)=O)cc([N+](=O)[O-])c2s1` [Control 3] were 27.6 min and 0.015 µg/mL.
In turn, `CN(Cc1nnc(-c2ccc(F)cc2)s1)c1nc(=O)c2cc(S(C)(=O)=O)cc([N+](=O)[O-])c2s1` [Control 4] had a half-life at 1 μM in the data set “in vitro” of 13.2 min. Moreover, the MIC in data set [1] is 0.024 µg/mL.
The like results for `CN(Cc1coc(-c2ccccc2)n1)c1nc(=O)c2cc(S(C)(=O)=O)cc([N+](=O)[O-])c2s1` [Control 5] were, in that order, 21 min and 0.015 µg/mL.
Usually solubility stands for the concentration that dissolves in the medium under given conditions. A higher solubility goes with a readily soluble substance. As for `CN(Cc1nnc(-c2ccccc2)o1)c1nc(=O)c2cc(C(F)(F)F)cc([N+](=O)[O-])c2s1` [Example 1, 2-(methyl ((5-phenyl-1,3,4-oxadiazol-2-yl)methyl)amino)-8-nitro-6-(trifluoromethyl)-4H-benzo [e] [1,3] Thiazin-4-ketone], the half-life at 1 μM in the data set “in vitro” was 68.2 min. Further, the concentration in solution in “physchem” (solubility at 4 h) was 0.15 µg/mL (≈ 0.324 µM). Moreover, in data set [1], the MIC came to 0.003 µg/mL.
The like results for `CN(Cc1cn(-c2ccccc2)nn1)c1nc(=O)c2cc(C(F)(F)F)cc([N+](=O)[O-])c2s1` [Example 2, 2-(1-phenyl ((1-1H-1,2,3-triazole-4-yl)methyl) (methyl)amino)-8-nitro-6-(trifluoromethyl)-4H-benzo [e] [1,3] Thiazin-4-ketone] were, in that order, 100 min, 0.13 µg/mL (≈ 0.281 µM) and 0.004 µg/mL.
Taken in the same sequence, the figures for `CN(Cc1cn(-c2ccc(F)cc2)nn1)c1nc(=O)c2cc(C(F)(F)F)cc([N+](=O)[O-])c2s1` [Example 3] were 116 min, 0.12 µg/mL (≈ 0.25 µM) and 0.004 µg/mL.
In turn, `CN(Cc1nnc(-c2ccc(F)cc2)s1)c1nc(=O)c2cc(C(F)(F)F)cc([N+](=O)[O-])c2s1` [Example 4] displayed a half-life at 1 μM in “in vitro” of 34.3 min. Besides, the MIC in data set [1] worked out at 0.016 µg/mL.
On to `CN(Cc1coc(-c2ccccc2)n1)c1nc(=O)c2cc(C(F)(F)F)cc([N+](=O)[O-])c2s1` [Example 5, 2-(methyl((2-phenyloxazole-4-yl)methyl)amino)-8-nitro-6-(trifluoromethyl)-4H-benzo [e] [1,3] Thiazin-4-ketone], for which the half-life at 1 μM in the data set “in vitro” was 33.6 min. For the same compound, the concentration in solution in the data set “physchem” (solubility at 4 h) was 0.11 µg/mL (≈ 0.238 µM). For the same compound, in data set [1], the MIC came to 0.003 µg/mL.
The like results for `O=c1nc(N2CCN(CC3CCCCC3)CC2)sc2c([N+](=O)[O-])cc(C(F)(F)F)cc12` [PBTZ169] were, in that order, 38 min, less than 0.01 µg/mL and 0.00183 µg/mL.
Take `NNC(=O)c1ccncc1` [isoniazid INH, isoniazid]: the MIC in data set [1] was 0.028 µg/mL; in the data set with Tuberculosis, 0.5 µM (≈ 0.0686 µg/mL).
